Test results reported in publication PMC12655637, “Design, Synthesis, and Mechanistic Study of Novel Ciprofloxacin/Thiazole Chalcone Hybrids as Potential Anticancer Agents” (Pharmaceuticals, 2025).

Experiments:
Assay in all cases: NCI-60 screening, one-dose (10 µM) and five-dose, SRB
[1] = test system: A549/ATCC; assay type: cell-based, human
[2] = test system: RXF 393; assay type: cell-based; details: Homo sapiens; 10 μM; RXF 393, Renal Cancer; read-out: Growth percentage
[3] = test system: MDA-MB-468; assay type: cell-based, human; details: Homo sapiens
From the text: Control cells Test cells FLD
available usually at NCI library.
An aliquot of frozen drug concentrate is […]

[4] = test system: CAKI-1; assay type: cell-based
[5] = test system: 786−0; assay type: cell-based, human
[6] = test system: HOP-62; assay type: cell-based, human
[7] = test system: SF-295; assay type: cell-based, human
[8] = test system: SK-MEL-5; assay type: cell-based, human
[9] = test system: MDA-MB231/ATCC; assay type: cell-based
[10] = test system: NCI-H226; assay type: cell-based, human
[11] = test system: A498; assay type: cell-based; details: five-dose, A498
[12] = test system: COLO 205; assay type: cell-based, human
[13] = test system: RPMI-8226; assay type: cell-based, human
[14] = test system: SR; assay type: cell-based, human; details: five-dose
[15] = test system: NCI/ADR-RES; assay type: cell-based, human
[16] = test system: SK-MEL-2; assay type: cell-based, human
[17] = test system: HL-60(TB); assay type: cell-based, human
[18] = test system: LOX IMVI; assay type: cell-based, human; details: five-dose
[19] = test system: SNB-75; assay type: cell-based, human
[20] = test system: NCI-H460; assay type: cell-based, human; details: five-dose, NCI-H460
[21] = test system: HCT-116; assay type: cell-based, human; details: five-dose, HCT-116
[22] = test system: PC-3; assay type: cell-based, human
[23] = test system: BT-549; assay type: cell-based
[24] = test system: MDA-MB-435; assay type: cell-based
[25] = test system: OVCAR-8; assay type: cell-based, human
[26] = test system: SW-620; assay type: cell-based, human
[27] = test system: HCT-15; assay type: cell-based, human
[28] = test system: TK-10; assay type: cell-based, human
[29] = test system: SN12C; assay type: cell-based, human
[30] = test system: M14; assay type: cell-based, human
[31] = Homo sapiens, five-dose, read-out: LC50 (the source's name)
[32] = Homo sapiens, five-dose, CAKI-1
[33] = Homo sapiens, five-dose, HOP-62
[34] = Homo sapiens, five-dose, SF-295
[35] = Homo sapiens, five-dose, SK-MEL-5
[36] = Homo sapiens, five-dose, NCI-H226
[37] = Homo sapiens, read-out: LC50 (the source's name)
[38] = Homo sapiens, five-dose, COLO 205
[39] = Homo sapiens, five-dose, SK-MEL-2
[40] = Homo sapiens, five-dose, SNB-75
[41] = Homo sapiens, five-dose, BT-549
[42] = Homo sapiens, five-dose, OVCAR-8
[43] = Homo sapiens, five-dose, SW-620
[44] = Homo sapiens, five-dose, HCT-15

Cc1nc(SCC(=O)N2CCN(c3cc4c(cc3F)c(=O)c(C(=O)O)cn4C3CC3)CC2)sc1C(=O)/C=C/c1cccc(F)c1 [Compound 4d, (E)-1-Cyclopropyl-6-fluoro-7-(4-(2-((5-(3-(3-fluorophenyl)acryloyl)-4-methylthiazol-2-yl)thio)acetyl)piperazin-1-yl)-4-oxo-1,4-dihydroquinoline-3-carboxylic Acid]
activity at 10 µM ([1]; Homo sapiens, 10 μM, Non-Small-Cell Lung Cancer, read-out: Growth percentage): 65.8%
GI50 ([1]; Homo sapiens, five-dose): > 100 µM
IC50 ([1]; Homo sapiens, five-dose): > 100 µM
CC50 [1, 31]: > 100 µM
TGI ([1]; five-dose): 7.94 µM
activity at 10 µM [2]: -25.9%
activity at 10 µM ([3]; MDA-MB-468, 10 μM, MDA-MB-468, Breast Cancer, read-out: Growth percentage): -11.1%
GI50 ([3]; five-dose, MDA-MB-468): 4.1 µM
IC50 ([3]; five-dose, MDA-MB-468): > 100 µM
CC50 ([3]; five-dose, MDA-MB-468, read-out: LC50 (the source's name)): > 100 µM
activity at 10 µM ([4]; Homo sapiens, 10 μM, CAKI-1, Renal Cancer, read-out: Growth percentage): 79.8%
GI50 [4, 32]: > 100 µM
IC50 [4, 32]: > 100 µM
CC50 ([4]; Homo sapiens, five-dose, CAKI-1, read-out: LC50 (the source's name)): > 100 µM
TGI ([4]; five-dose, CAKI-1): 100.0 µM
activity at 10 µM ([5]; Homo sapiens, 10 μM, 786−0, Renal Cancer, read-out: Growth percentage): 41.9%
IC50 ([5]; Homo sapiens, five-dose, 786−0): > 100 µM
CC50 ([5]; Homo sapiens, five-dose, 786−0, read-out: LC50 (the source's name)): > 100 µM
TGI ([5]; five-dose, 786−0): 100.0 µM
activity at 10 µM ([6]; Homo sapiens, HOP-62, 10 μM, HOP-62, Non-Small-Cell Lung Cancer, read-out: Growth percentage): -55.3%
GI50 [6, 33]: 7.4 µM
IC50 [6, 33]: 72.4 µM
CC50 ([6]; Homo sapiens, five-dose, HOP-62, read-out: LC50 (the source's name)): > 100 µM
TGI ([6]; five-dose, HOP-62): 100.0 µM
activity at 10 µM ([7]; Homo sapiens, 10 μM, SF-295, CNS Cancer, read-out: Growth percentage): 93.1%
GI50 [7, 34]: > 100 µM
IC50 [7, 34]: > 100 µM
CC50 ([7]; Homo sapiens, five-dose, SF-295, read-out: LC50 (the source's name)): > 100 µM
TGI ([7]; five-dose, SF-295): 8.7 µM
activity at 10 µM ([8]; Homo sapiens, 10 μM, SK-MEL-5, Melanoma, read-out: Growth percentage): 45.1%
GI50 [8, 35]: 42.7 µM
IC50 [8, 35]: > 100 µM
CC50 ([8]; Homo sapiens, five-dose, SK-MEL-5, read-out: LC50 (the source's name)): > 100 µM
TGI ([8]; five-dose, SK-MEL-5): 100.0 µM
GI50 ([9]; Homo sapiens, MDA-MB-231): > 100 µM
IC50 ([9]; Homo sapiens, MDA-MB-231): > 100 µM
CC50 ([9]; Homo sapiens, five-dose, MDA-MB-231/ATCC, read-out: LC50 (the source's name)): > 100 µM
TGI ([9]; five-dose, MDA-MB-231/ATCC): 100.0 µM
activity at 10 µM ([10]; Homo sapiens, 10 μM, NCI-H226, Non-Small-Cell Lung Cancer, read-out: Growth percentage): 70.9%
GI50 [10, 36]: > 100 µM
IC50 [10, 36]: > 100 µM
LC50 (concentration killing 50% of cells) [10, 36]: > 100 µM
TGI ([10]; five-dose, NCI-H226): 100.0 µM
GI50 ([11]; Homo sapiens): > 100 µM
IC50 ([11]; Homo sapiens): > 100 µM
CC50 [11, 37]: > 100 µM
TGI [11]: 100.0 µM
activity at 10 µM ([12]; Homo sapiens, 10 μM, COLO 205, Colon Cancer, read-out: Growth percentage): 102%
GI50 [12, 38]: 4.9 µM
IC50 [12, 38]: 9.3 µM
CC50 ([12]; Homo sapiens, five-dose, COLO 205, read-out: LC50 (the source's name)): > 100 µM
TGI ([12]; five-dose, COLO 205): 19.95 µM
IC50 ([13]; Homo sapiens, RPMI-8226, RPMI-8226): 0.3 µM
IC50 ([13]; Homo sapiens, RPMI-8226, five-dose, RPMI-8226): 0.34 µM
GI50 ([13]; Homo sapiens, five-dose, RPMI-8226): 0.19 µM
CC50 ([13]; Homo sapiens, five-dose, RPMI-8226, read-out: LC50 (the source's name)): 0.6 µM
TGI ([13]; five-dose, RPMI-8226): 2.63 µM
GI50 ([14]; Homo sapiens): 1.4 µM
IC50 ([14]; Homo sapiens): 2.3 µM
CC50 [14, 37]: 5.3 µM
TGI [14]: 100.0 µM
activity at 10 µM ([15]; Homo sapiens, 10 μM, Ovarian Cancer, read-out: Growth percentage): 110%
GI50 ([15]; Homo sapiens, five-dose): > 100 µM
IC50 ([15]; Homo sapiens, five-dose): > 100 µM
CC50 [15, 31]: > 100 µM
TGI ([15]; five-dose): 100.0 µM
activity at 10 µM ([16]; Homo sapiens, 10 μM, SK-MEL-2, Melanoma, read-out: Growth percentage): -15.4%
GI50 [16, 39]: > 100 µM
IC50 [16, 39]: > 100 µM
CC50 ([16]; Homo sapiens, five-dose, SK-MEL-2, read-out: LC50 (the source's name)): > 100 µM
TGI ([16]; five-dose, SK-MEL-2): 100.0 µM
activity at 10 µM ([17]; Homo sapiens, HL-60, 10 μM, HL-60(TB), Leukemia, read-out: Growth percentage): -99.8%
IC50 ([17]; Homo sapiens, HL-60, five-dose, HL-60(TB)): 2.9 µM
IC50 ([17]; Homo sapiens, HL-60, leukemia HL-60): 3.7 µM
GI50 ([17]; Homo sapiens, five-dose, HL-60(TB)): 1.78 µM
CC50 ([17]; Homo sapiens, five-dose, HL-60(TB), read-out: LC50 (the source's name)): 11 µM
TGI ([17]; five-dose, HL-60(TB)): 3.8 µM
GI50 ([18]; Homo sapiens): 2.8 µM
IC50 ([18]; Homo sapiens): 4.1 µM
CC50 [18, 37]: > 100 µM
TGI [18]: 100.0 µM
activity at 10 µM ([19]; Homo sapiens, 10 μM, SNB-75, CNS Cancer, read-out: Growth percentage): 49.1%
GI50 [19, 40]: > 100 µM
IC50 [19, 40]: > 100 µM
CC50 ([19]; Homo sapiens, five-dose, SNB-75, read-out: LC50 (the source's name)): > 100 µM
TGI ([19]; five-dose, SNB-75): 100.0 µM
GI50 ([20]; Homo sapiens): > 100 µM
IC50 ([20]; Homo sapiens): > 100 µM
CC50 [20, 37]: > 100 µM
TGI [20]: 100.0 µM
GI50 ([21]; Homo sapiens): 0.21 µM
IC50 ([21]; Homo sapiens): 0.34 µM
TGI [21]: 100.0 µM
activity at 10 µM ([22]; Homo sapiens, 10 μM, PC-3, Prostate Cancer, read-out: Growth percentage): 53.4%
GI50 ([22]; Homo sapiens, five-dose, PC-3): 51.3 µM
IC50 ([22]; Homo sapiens, five-dose, PC-3): > 100 µM
CC50 ([22]; Homo sapiens, five-dose, PC-3, read-out: LC50 (the source's name)): > 100 µM
TGI ([22]; five-dose, PC-3): 100.0 µM
activity at 10 µM ([23]; Homo sapiens, 10 μM, BT-549, Breast Cancer, read-out: Growth percentage): -88.5%
GI50 [23, 41]: 5.4 µM
IC50 [23, 41]: 25.7 µM
CC50 ([23]; Homo sapiens, five-dose, BT-549, read-out: LC50 (the source's name)): > 100 µM
TGI ([23]; five-dose, BT-549): 100.0 µM
GI50 ([24]; Homo sapiens, MDA-MB-435): 3.7 µM
IC50 ([24]; Homo sapiens, MDA-MB-435): 6.9 µM
activity at 10 µM ([24]; Homo sapiens, MDA-MB-435, read-out: Growth percentage, 10 μM, MDA-MB-435, Melanoma): -3.7%
CC50 ([24]; Homo sapiens, five-dose, MDA-MB-435, read-out: LC50 (the source's name)): > 100 µM
TGI ([24]; five-dose, MDA-MB-435): 100.0 µM
activity at 10 µM ([25]; Homo sapiens, 10 μM, OVCAR-8, Ovarian Cancer, read-out: Growth percentage): 35.2%
GI50 [25, 42]: > 100 µM
IC50 [25, 42]: > 100 µM
CC50 ([25]; Homo sapiens, five-dose, OVCAR-8, read-out: LC50 (the source's name)): > 100 µM
TGI ([25]; five-dose, OVCAR-8): 100.0 µM
activity at 10 µM ([26]; Homo sapiens, 10 μM, SW-620, Colon Cancer, read-out: Growth percentage): 3.2%
GI50 [26, 43]: 3.7 µM
IC50 [26, 43]: 4.7 µM
CC50 ([26]; Homo sapiens, five-dose, SW-620, read-out: LC50 (the source's name)): > 100 µM
TGI ([26]; five-dose, SW-620): 100.0 µM
activity at 10 µM ([27]; Homo sapiens, 10 μM, HCT-15, Colon Cancer, read-out: Growth percentage): -41.7%
GI50 [27, 44]: 33.9 µM
IC50 [27, 44]: 53.7 µM
LC50 (50% lethal concentration) [27, 44]: > 100 µM
TGI ([27]; five-dose, HCT-15): 100.0 µM
activity at 10 µM ([28]; Homo sapiens, 10 μM, TK-10, Renal Cancer, read-out: Growth percentage): 97.5%
GI50 ([28]; Homo sapiens, five-dose, TK-10): > 100 µM
IC50 ([28]; Homo sapiens, five-dose, TK-10): > 100 µM
CC50 ([28]; Homo sapiens, five-dose, TK-10, read-out: LC50 (the source's name)): > 100 µM
TGI ([28]; five-dose, TK-10): 100.0 µM
activity at 10 µM ([29]; Homo sapiens, 10 μM, Renal Cancer, read-out: Growth percentage): 27.7%
GI50 ([29]; Homo sapiens, five-dose): > 100 µM
IC50 ([29]; Homo sapiens, five-dose): > 100 µM
CC50 [29, 31]: > 100 µM
TGI ([29]; five-dose): 100.0 µM
activity at 10 µM ([30]; Homo sapiens, 10 μM, M14, Melanoma, read-out: Growth percentage): -15.3%
GI50 ([30]; Homo sapiens, five-dose, M14): 12 µM
IC50 ([30]; Homo sapiens, five-dose, M14): > 100 µM
CC50 ([30]; Homo sapiens, five-dose, M14, read-out: LC50 (the source's name)): > 100 µM
TGI ([30]; five-dose, M14): 100.0 µM
